Where two headings read alike, the source gives them in different places.
System: healthy individuals
Conditions: for RR: healthy subjects, lead II, mean ± SD
Procedure: Our investigation is based on the analysis of 12-lead digital Holter recordings in: 49 LQT1 carriers, 25 LQT2 carriers, 37 healthy individuals off drugs and on 160 mg of sotalol, and 21 of them also on 320 mg of sotalol. The Holter recordings were used to investigate repolarization parameters and their heart rate dependency.
The study populations consisted of: 49 LQT1 carriers, 25 LQT2 carriers, and 37 healthy individuals who participated in a study focused on effect of sotalol on ECG parameters of repolarization. The group of LQTS patients included individuals with genetically identified KCNH2 (HERG) and KCNQ1 mutations, we investigated these two types of mutations since they are associated with two different ion-kinetics dysfunctions of potassium currents: the KCNH2 have been linked to a reduction of the rapidly activating repolarizing potassium current (IKr) and the KCNQ1 to the slowly activating ion current IKs. We analyzed the patients in whom digital 24-hour Holter recordings were available in order to be able to investigate heart rate dependency of their repolarization morphology. The protocol of this study included 3 days of Holter recordings: at baseline, on single 160 mg dose of sotalol and a 320 mg dose of sotalol.
All the Holter ECGs were recorded using the same type of equipment: 24-hour Holter recorder H12 (H-12 recorder, Mortara Instrument, Milwaukee, Wis.) providing digital ECG signal at a sampling frequency of 180 Hz and with 12 bit amplitude resolution (6.25 pv). In this recording, 8 original leads are recorded and the remaining 4 leads (augmented limb leads aVR, aVL, aVF and lead III) are computed. Beat classification was performed using the HScribe scanning software (HScribe, Mortara Instrument, Milwaukee, Wi.) and manually reviewed and adjusted when necessary. The information about cardiac beat annotation was exported in XML format and integrated into the COMPAS software (COMPhrensive Analysis of the repolarization Segment software, University of Rochester Medical Center Rochester, N.Y.) for the analysis of repolarization morphology.
To ensure stability of repolarization and increase signal-to-noise ratio, we adopted the following strategy: the Holter recordings were divided in sections of 10 continuous sinus beats. Only the sections preceded by stable heart rate within the previous 5 minutes were selected for the analysis. Heart rate stability required having less than 300 ms changes between continuous RR values within the 5 minutes. […] The QT interval and T-amplitude measurements were based on median beats computed from each so-called “stable representative beats”.
Based on a technique ensuring an appropriate stability of the modeling of the relationship between repolarization measurements and the RR intervals disclosed in a publication by Couderc J P, Xiaojuan X, Zerba W, Moss A J, entitled, “Assessment of the Stability of the Individual-Based Correction of QT Interval for Heart Rate”, published in the Ann. Noninvasive. Electrocardiol. 2005 January; 10(1):25-34, and herein officially incorporated by reference, we investigated two electrocardiographic measurements: the QT interval and the amplitude of the T-wave and their relationship with RR intervals.
The QT interval and T amplitude were measured on the stable representative beats from lead II. The end of T-wave was identified based on the tangent method, the crossing point between the tangent and the isoelectric line identifying the end of the T-wave, although other methods of measuring the QT interval could be used in other embodiments. The amplitude of the T-wave was measured at the maximum value of the T-wave signal in absolute value. For negative T-waves, the sign of the amplitude was conserved. For biphasic T-waves, we measured the highest portion of the signal in absolute value. No manual adjustments of measurements were performed.

Dose dependence of T-wave amplitude/RR slope (in vivo): dose-dependent effect on the slope | Mean levels of T wave amplitude off vs on sotalol (in vivo): not significantly different
Compound: CC(C)NCC(O)c1ccc(NS(C)(=O)=O)cc1 (stereo not drawn) [sotalol]
RR (high dose sotalol (320 mg), n = 21, diurnal period): 947 ± 70 ms | RR (low dose sotalol (160 mg), n = 37, diurnal period): 893 ± 63 ms | Dose dependence of QT/RR slope (in vivo): not associated with sotalol dose-dependent changes | Dose-dependent effect on QT interval duration, RR bin analysis (in vivo): this trend did not reach statistical significance | QT interval duration, RR bin analysis, vs healthy individuals (in vivo): significant QT interval prolongation | QTc with increasing dose of sotalol (in vivo): progressively prolonged | T-wave amplitude across RR bins (in vivo): clear dose-dependent effect of the drug on T-wave amplitude exacerbated at low heart rate

Source: patent publication US20080188761A1, “ECG-BASED IDENTIFICATION OF IMPAIRED IKR KINETICS” (priority 2006, published 2008)
